In patent US8173387B2, “Method of examining chemical using gene-disrupted strain” (priority 2003, dated 2012):

What was measured:
Type in all cases: cell-based, Saccharomyces cerevisiae
[1] = tested on: gene-disrupted strain DEL025 (YLR311C) transformed with a plasmid p-YBR072W; assay: promoter assay (GFP reporter), Example 2; details: strain printed DEL, p-YBR072W, GFP fluorescence 4 hours after loading, parent strain BY4743
Description: (§1) In a gene-disrupted strain, a growing rate becomes small so much, or medium components in which the strain can be grown are different in some cases, depending on a disrupted gene. Then, in the present experiment studying a host cell of a promoter assay method, in view of easy comparison with a control experiment, among gene-disrupted strains obtained as the result of Example 1, a few strains which have sensitivity to many chemicals and are grown by the same procedure as that of a parent strain were selected. Selected gene-disrupted strains are 8 strains of DEL000, DEL002, DEL011, DEL014, DEL016, DEL019, DEL022 and DEL025 in Table 7. Further, as a control, a parent strain, BY4743 was used.
(§2) A competent cell of each of a parent strain of a gene-disrupted strain and selected gene-disrupted strains was prepared. This competent cell was transformed using two kinds of prepared plasmids for promoter assay, p-YBR072W (in which GFP was connected understream of a promoter of YBR072W) and p-YPL171C (in which GFP was connected downstream of a promoter of YPL171C).
(§3) The resulting transformant was grown to the steady state by shaking-culturing on a SD medium (histidine, leucine) at 25° C. The transformant in the steady state was diluted 500-fold with the same medium, shaking-cultured at 25° C. for 15 hours and, after it was confirmed that an absorbance at 600 nm was 0.2 to 0.5 as a logarithmic growth phase, chemicals having different concentrations were loaded. After loading of chemicals, fluorescence of cells which had been cultured for 4 hours was measured using a flow cytometer (FITC filter, EPICS XL-MCL, Bechmancoulter), and this was adopted as an expression amount of GFP (green fluorescence protein) which is a marker gene. A fluorescence intensity of 10000 cells was measured with a flow cytometer by one measurement and an average of fluorescence intensities of all cells was obtained, and was adopted as a measured value. Similarly, a fluorescence intensity of a cell to which a chemical had not been loaded was obtained, and results are shown as a fluorescence intensity ratio.

[2] = tested on: gene-disrupted strain DEL002 (YDR027C) transformed with a plasmid p-YBR072W; assay: promoter assay (GFP reporter), Example 2; details: GFP fluorescence 4 hours after loading, parent strain BY4743
Description: as §1, §2, §3

[3] = tested on: gene-disrupted strain DEL019 (YIL036W) transformed with a plasmid p-YBR072W; assay: promoter assay (GFP reporter), Example 2; details: strain printed DEL019025, p-YBR072W, GFP fluorescence 4 hours after loading, parent strain BY4743
Description: as §1, §2, §3

[4] = tested on: gene-disrupted strain DEL016 (YCR028C) transformed with a plasmid p-YBR072W; assay: promoter assay (GFP reporter), Example 2; details: GFP fluorescence 4 hours after loading, parent strain BY4743
Description: as §1, §2, §3

[5] = tested on: gene-disrupted strain DEL011 (YGL240W) transformed with a plasmid p-YBR072W; assay: promoter assay (GFP reporter), Example 2; details: GFP fluorescence 4 hours after loading, parent strain BY4743
Description: as §1, §2, §3

[6] = tested on: gene-disrupted strain DEL016 (YCR028C) transformed with a plasmid p-YPL171C; assay: promoter assay (GFP reporter), Example 2; details: GFP fluorescence 4 hours after loading, parent strain BY4743
Description: as §1, §2, §3

[7] = tested on: gene-disrupted strain DEL011 (YGL240W) transformed with a plasmid p-YPL171C; assay: promoter assay (GFP reporter), Example 2; details: GFP fluorescence 4 hours after loading, parent strain BY4743
Description: as §1, §2, §3

[8] = tested on: gene-disrupted strain DEL014 (YJR104C) transformed with a plasmid p-YBR072W; assay: promoter assay (GFP reporter), Example 2; details: GFP fluorescence 4 hours after loading, parent strain BY4743
Description: as §1, §2, §3

[9] = tested on: homozygous diploid of gene-disrupted strain DEL006 (YHR039C-A) transformed with a plasmid p-YPL171C; assay: promoter assay (GFP reporter), Example 3; details: W303 background
From the text: (§4) In order to prepare a gene-disrupted strain transformation cassette, genes having chemical sensitivity; YPR036W(DEL000), YDL151C(DEL001), YGL026C(DEL003), YHR039C-A(DEL006), YKL080W(DEL007), YLR447C(DEL008), YGR006W(DEL012), YGR105W(DRL013), YJR104C(DEL014), YGL206C(DEL018), YIL036W(DEL019), YKL119C(DEL020), YLR226W(DEL022) and YLR311C(DEL025) in Table 7 were selected, and each gene was replaced with a transformation marker such as kanamycin resistance. As primers for performing PCT amplification, a N-terminal side (ORF(upper)) and a C-terminal side (ORF(lower)) in each ORF were used. A length of a sequence (ORF(upper) and ORF(lower)) of a primer homologues with ORF was 46 or 50 bp.
(§5) A W303 a mating type (ATCC200903) and a W303α mating type (ATCC201238) in which the same gene was gene disruption-manipulated were mated by a mating procedure (Yeast Gene Experimental Manual: Maruzen Co., Ltd., p 83-92) to prepare homozygous diploids. Separately, mating of a W303a mating type, and a non-gene-disrupted W303α type was performed by the similar procedure to prepare heterozygous diploids.
(§6) By such the procedure, homozygous diploids of DEL000, DEL001, DEL003, DEL006, DEL007, DEL008, DEL012, DEL013, DEL014, DEL018, DEL019, DEL020, DEL022 and DEL025 in Table 7 were prepared. In addition, heterozygous diploids in which DEL006, DEL014 and DEL 022 were mated with a non-gene-disrupted strain (hereafter, referred to as DEL006 heterozygous diploid, DEL 014 heterozygous diploid, DEL022 heterozygous diploid) and, further, a heterozygous diploid in which DEL000 and DEL014 were mated (hereafter, referred to as DEL000/014 heterozygous diploid) were prepared.
(§7) Competent cells of W303 ATCC201239 (MATa/MATα leu2-3/leu2-3 leu2-112/leu2-112 trp1-1/trp1-1 ura3-1/ura3-1 his 3-11/his3-11 his3-15/his3-15 ade2-1/ade2-1 can1-100/can1-100) which is a parent strain of gene-disrupted strains, and each of prepared gene-disrupted strains were prepared. The competent cells were transformed using two kind of prepared plasmid for promoter assay, p-YBR072W (in which GFP is connected downstream of a promoter of YBR072W) and p-YPL171C (in which GFP is connected downstream of a promoter of YPL171C).
(§8) The resulting transformant was grown to the steady state by shaking-culturing on a SD medium (adenine, hystidine, triptophan, leucine) at 25° C. The transformant in the steady state was diluted 500-fold with the same medium, shaking-cultured at 25° C. for 15 hours and, after it was confirmed that an absorbance at 600 nm was 0.2 to 0.5 as a logarithmic growth phase, chemicals having different concentrations were loaded. After loading of chemicals, fluorescence of cells which had been cultured for 4 hours was measured using a flow cytometer (FITC filter, EPICS XL-MCL, Bechmancoulter), and this was adopted as an expression amount of GFP (green fluorescence protein) which is a marker gene. A fluorescence intensity of 10000 cells was measured with a flow cytometer by one measurement and an average of fluorescence intensities of all cells was obtained, and was adopted as a measured value. Similarly, a fluorescence intensity of a cell to which a chemical had not been loaded was obtained, and results are shown as difference in a fluorescence intensity.

[10] = tested on: homozygous diploid of gene-disrupted strain DEL014 (YJR104C) transformed with a plasmid p-YPL171C; assay: promoter assay (GFP reporter), Example 3; details: W303 background
From the text: as §4, §5, §6, §7, §8

[11] = tested on: heterozygous diploid DEL000/014 transformed with a plasmid p-YPL171C; assay: promoter assay (GFP reporter), Example 3; details: heterozygous diploid DEL000/014, p-YPL171C, W303 background
From the text: as §4, §5, §6, §7, §8

[12] = tested on: homozygous diploid of gene-disrupted strain DEL003 (YGL026C) transformed with a plasmid p-YPL171C; assay: promoter assay (GFP reporter), Example 3; details: W303 background
From the text: as §4, §5, §6, §7, §8

[13] = tested on: homozygous diploid of gene-disrupted strain DEL022 (YLR226W) transformed with a plasmid p-YPL171C; assay: promoter assay (GFP reporter), Example 3; details: W303 background
From the text: as §4, §5, §6, §7, §8

[14] = tested on: homozygous diploid of gene-disrupted strain DEL008 (YLR447C) transformed with a plasmid p-YPL171C; assay: promoter assay (GFP reporter), Example 3; details: W303 background
From the text: as §4, §5, §6, §7, §8

[15] = tested on: homozygous diploid of gene-disrupted strain DEL001 (YDL151C) transformed with a plasmid p-YPL171C; assay: promoter assay (GFP reporter), Example 3; details: W303 background
From the text: as §4, §5, §6, §7, §8

[16] = tested on: homozygous diploid of gene-disrupted strain DEL007 (YKL080W) transformed with a plasmid p-YPL171C; assay: promoter assay (GFP reporter), Example 3; details: W303 background
From the text: as §4, §5, §6, §7, §8

[17] = tested on: heterozygous diploid of gene-disrupted strain DEL006 (YHR039C-A) transformed with a plasmid p-YPL171C; assay: promoter assay (GFP reporter), Example 3; details: W303 background
From the text: as §4, §5, §6, §7, §8

[18] = tested on: homozygous diploid of gene-disrupted strain DEL020 (YKL119C) transformed with a plasmid p-YPL171C; assay: promoter assay (GFP reporter), Example 3; details: DEL0020 homozygous diploid, W303 background
From the text: as §4, §5, §6, §7, §8

[Cl][Cd][Cl] [cadmium chloride]
concentration at which the strain responded, as fraction of a concentration of a parent strain [1]: 1/3
concentration at which the strain responded, as fraction of a concentration of a parent strain [2]: 1/3
concentration at which the strain responded, as fraction of a concentration of a parent strain [3]: 1/3
concentration at which the strain responded, as fraction of a concentration of a parent strain [4]: 1/3
concentration at which the strain responded, as fraction of a concentration of a parent strain [5]: 1/3

[Cl][Hg][Cl] [mercuric chloride]
concentration at which the strain responded, as fraction of a concentration of a parent strain [6]: 1/3
concentration at which the strain responded, as fraction of a concentration of a parent strain [7]: 1/10

O=[As][O-].[Na+] [sodium metaarsenite]
concentration at which the strain responded, as fraction of a concentration of a parent strain [7]: 1/3
concentration at which the strain responded, as fraction of a concentration of a parent strain [4]: 1/3
concentration at which the strain responded, as fraction of a concentration of a parent strain [8]: 1/3000
concentration at which the strain responded, as fraction of a concentration of a parent strain [5]: 1/10
concentration at which sensitivity is shown, as fraction of a concentration of a gene-non-disrupted strain [9]: 1/30
concentration at which sensitivity is shown, as fraction of a concentration of a gene-non-disrupted strain [10]: 1/30
concentration at which sensitivity is shown, as fraction of a concentration of a gene-non-disrupted strain [11]: 1/30
concentration at which sensitivity is shown, as fraction of a concentration of a gene-non-disrupted strain [12]: 1/3
concentration at which sensitivity is shown, as fraction of a concentration of a gene-non-disrupted strain [13]: 1/3
concentration at which sensitivity is shown, as fraction of a concentration of a gene-non-disrupted strain [14]: 1/3

CN(C)C(=S)SSC(=S)N(C)C [thiuram]
concentration at which sensitivity is shown, as fraction of a concentration of a gene-non-disrupted strain [9]: 1/10
concentration at which sensitivity is shown, as fraction of a concentration of a gene-non-disrupted strain [15]: 1/3
concentration at which sensitivity is shown, as fraction of a concentration of a gene-non-disrupted strain [16]: 1/1000
concentration at which sensitivity is shown, as fraction of a concentration of a gene-non-disrupted strain [13]: 1/1000
concentration at which sensitivity is shown, as fraction of a concentration of a gene-non-disrupted strain [17]: 1/10
concentration at which sensitivity is shown, as fraction of a concentration of a gene-non-disrupted strain [18]: 1/3
